Measured values taken from patent US5516889A, “Synthetic thrombin receptor peptides” (University Technologies International, Inc., priority 1995, dated 1996).
Like-named read-outs stand apart in the source and are kept apart here. One block for each molecule: values may come before it. Residues, ends and D or L forms follow the SMILES beside them. *: point of attachment. Propionyl = CCC(=O)*

Legend:
[1] = target: T1, thrombin receptor (guinea pig gastric longitudinal muscle strips) (Cavia porcellus, UniProt A0A286XH07); conditions: for Effect of inhibitor on contractile actions of P5--NH2 and Pr-P4: GLM
T1 sequence (A0A286XH07 24-426): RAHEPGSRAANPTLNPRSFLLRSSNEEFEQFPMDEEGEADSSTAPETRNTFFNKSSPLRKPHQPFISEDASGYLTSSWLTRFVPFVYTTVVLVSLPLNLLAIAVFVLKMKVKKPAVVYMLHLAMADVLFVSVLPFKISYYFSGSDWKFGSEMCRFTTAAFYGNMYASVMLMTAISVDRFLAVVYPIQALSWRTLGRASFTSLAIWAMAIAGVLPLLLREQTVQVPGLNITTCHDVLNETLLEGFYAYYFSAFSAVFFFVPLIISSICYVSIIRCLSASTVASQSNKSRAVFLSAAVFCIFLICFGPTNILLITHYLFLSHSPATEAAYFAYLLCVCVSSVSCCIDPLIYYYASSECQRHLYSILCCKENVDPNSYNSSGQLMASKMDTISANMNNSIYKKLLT
Procedure: (§1) The guinea pig gastric longitudinal muscle (GLM) strips and the rat thoracic aorta (RA) ring preparations were isolated as previously described 14, 15. In brief, gastric LM strips (3×10 mm), obtained from male albino Hartley strain guinea pigs were equilibrated for about 1.5 h at 37° (in an aerated (95% O2 /5% CO2) Krebs-Henseleit buffer (3 mL) of the following composition (in mM): NaCl, 118; KCl, 4.7; CaCl2, 2.5; MgCl2, 1.2; NaHCO3, 25; KH2 PO4, 1.2; and glucose, 10. The pH was maintained at 7.4. Rat gastric LM strips (3×10 mm) were obtained, as for the GLM strips, from male albino Sprague Dawley animals (250-300 g). The stomach, opened along the greater curvature, was stripped free of all mucosal tissue under microscopic visualization and longitudinal tissue strips were cut exactly at right angles to the visible circular muscle bundles. Tissue strips were pre-equilibrated in the buffer described above. Each tissue was challenged twice each in succession at timed intervals with 50 nM carbachol (20 min intervals), 1 μM angiotensin-II (1 h intervals) and 95 μM (60 μg/mL) receptor pentapeptide (P5, SFLLR, SEQ ID NO: 2) (25 min intervals for GLM; 30-35 min for RLM); tissues were washed at 10 and 15 min after the additions of agonists. Contractions were monitored isometrically using Statham force-displacement transducers. Only tissues responding well to all three agonists were used further for the evaluation of the biological activities of P5 and other peptide agonists.

[2] = system: thrombin receptor (rat thoracic aorta rings, intact endothelium); conditions: for Agonist (relaxation) activity: precontracted with 0.1 μM noradrenaline
Procedure: Thoracic RA rings (2 mm×3 mm), obtained from male albino Sprague Dawley rats, were equilibrated (about 1 h, 37° ) in the same organ bath buffer as was used for the LM tissue, and tension (baseline 1.0 g) was monitored isometrically using either Statham or Grass force-displacement transducers. The presence of an intact endothelium was ascertained by monitoring a relaxation response to acetylcholine (ACh, 1 μM) in a preparation that was submaximally (EC75) contracted by 0.1 μM noradrenaline (NA) in the presence of 0.1 mM ascorbic acid (to preserve the catecholamine). Only tissues yielding a relaxation concentration-response curve between 0.01 and 10 μM acetylcholine (maximal relaxation of 70 to 90%, relative to the tension developed by 0.1 μM NA) were used for the further evaluation of the receptor-derived peptides. The assay of TRP responsiveness was done (e.g. see FIG. 1) on tissues that were precontacted with 0.1 μM NA at 30 min time intervals. Tissues were washed approx. 5 min after the application of TRPs. […] For purposes of comparison, the same stock solutions of an individual peptide were evaluated, relative to P5, in both the RA and LM bioassays. When possible, both assays were done simultaneously on the same day.
Weighed peptide samples were routinely dissolved in 50 mM phosphate buffer, pH 7.4, to yield stock solutions, from which volumes of up to 0.2 mL were added directly to the organ bath; the concentrations of all stock solutions used were verified by quantitative amino acid analysis of aliquots. Pr-P4 and Pr-P4--NH2 were dissolved in 40 mM phosphate buffer, pH 7.4, containing 20% v/v absolute ethanol (i.e. 8 Vol of the above 50 mM phosphate buffer +2 Vol. ethanol). […] Indomethacin was dissolved in ethanol, such that the final ethanol concentration in the organ bath was at or lower than 0.01% v/v; this concentration of ethanol alone had no effect on the bioassay systems.

[3] = target: T2, thrombin receptor (rat gastric longitudinal muscle strips) (Rattus norvegicus, UniProt P26824); test: Rat gastric longitudinal muscle (RLM) strip contractile assay; type: cell-based
T2 construct: Rat gastric LM strips (3×10 mm) were obtained; from tissue; host or cells: rat (Sprague Dawley) gastric longitudinal muscle strips
T2 sequence (P26824 22-432): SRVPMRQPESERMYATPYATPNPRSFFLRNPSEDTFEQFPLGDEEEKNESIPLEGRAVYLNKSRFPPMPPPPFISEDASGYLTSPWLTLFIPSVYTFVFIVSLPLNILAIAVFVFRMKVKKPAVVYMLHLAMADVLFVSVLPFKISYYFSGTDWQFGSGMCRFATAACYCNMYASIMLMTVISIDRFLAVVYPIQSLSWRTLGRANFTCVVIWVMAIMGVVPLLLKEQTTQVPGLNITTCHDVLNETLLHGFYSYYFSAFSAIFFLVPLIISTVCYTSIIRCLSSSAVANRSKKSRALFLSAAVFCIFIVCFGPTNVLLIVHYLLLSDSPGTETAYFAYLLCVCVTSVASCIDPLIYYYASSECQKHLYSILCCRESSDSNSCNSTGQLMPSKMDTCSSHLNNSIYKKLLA
Excerpt: We obtained an evaluation of the potencies of the various TRPs, relative to P5, by using the linear portions of the concentration-effect curves, so as to calculate for several response levels the average ratio of concentrations (REC) of an individual TRP, relative to concentration of P5 that caused the same contractile response (i.e. REC =ECTRP .div.ECPS). […] In the RA assay, a similar approach to the estimate of relative potencies (REC S) was used, even though all agonists, except for P5--OCH3, appeared to cause equivalent maximal relaxation (FIG. 2, lower).
as §1, with “peptide agonists. For the GLM and RLM assays, concentration-effect curves for all peptides were constructed by expressing the response of each agonist as a percentage (% P595) relative to the contraction caused by 95 μM (60 μg/mL) P5 (0.9±0.1 g tension: mean ±S.E.M. for n=12 in the GLM; 1.6±0.9 g tension: mean ±S.E.M. for n=36 in the RLM).” for “peptide agonists.”
Weighed peptide samples were routinely dissolved in 50 mM phosphate buffer, pH 7.4, to yield stock solutions, from which volumes of up to 0.2 mL were added directly to the organ bath; the concentrations of all stock solutions used were verified by quantitative amino acid analysis of aliquots. Pr-P4 and Pr-P4--NH2 were dissolved in 40 mM phosphate buffer, pH 7.4, containing 20% v/v absolute ethanol (i.e. 8 Vol of the above 50 mM phosphate buffer +2 Vol. ethanol). Control aliquots of the ethanol-containing phosphate buffer alone had no effect on either of the bioassay systems. Acetylcholine, carbachol, indomethacin, noradrenaline and angiotensin-II and thrombin (human, 3000 to 4000 U/mg; 1 U/mL.perspectiveto.10 nM) were from Sigma (St. Louis, Mo.); genistein (GS) was from ICN Biochemicals, Costa Mesa, Calif. Tyrphostin (TP) (RG 50864, also designated AG213) was obtained through the courtesy of Dr. R. R. Swillo, Rhone-Poulenc Rorer (Collegeville, Pa). […] Indomethacin was dissolved in ethanol, such that the final ethanol concentration in the organ bath was at or lower than 0.01% v/v; this concentration of ethanol alone had no effect on the bioassay systems.

[4] = average concentration ratio relative to P5 causing equal contractile response (REC = EC TRP ÷ EC P5)
[5] = average concentration ratio relative to P5 causing equal relaxation response (REC = EC TRP ÷ EC P5)

- Relative potency (REC) GLM [1]: 1.8
Structure (SMILES): CC(C)C[C@H](NC(=O)[C@H](CC(C)C)NC(=O)[C@H](Cc1ccccc1)NC(=O)[C@H](C)N)C(=O)N[C@@H](CCCNC(=N)N)C(=O)O [AP5, A42 FLLR46] (H-AFLLR-OH)
- Relative potency (REC) RA [2]: 1.7

- Relative potency (REC) GLM [1]: 0.1
Structure (SMILES): COC(=O)[C@H](CCCNC(=N)N)NC(=O)[C@H](CC(C)C)NC(=O)[C@H](CC(C)C)NC(=O)[C@H](Cc1ccccc1)NC(=O)[C@@H](N)CO [P5-OCH-3, S42 FLLR46 -O-Methyl]
- Relative potency (REC) RA [2]: 0.1
- Agonist (relaxation) activity ([2]; RA): partial agonist

- Relative potency (REC) RLM [3]: 0.3
Structure (SMILES): CC(C)C[C@H](NC(=O)[C@H](CC(C)C)NC(=O)[C@H](Cc1ccccc1)NC(=O)[C@@H](N)CO)C(=O)N[C@@H](CCCN=C(N)N)C(=O)N[C@@H](CC(N)=O)C(=O)N1CCC[C@H]1C(=O)O [P7, S42 FLLRNP48] (H-SFLLRNP-OH)

Structure (SMILES): CC(C)C[C@H](NC(=O)[C@H](CC(C)C)NC(=O)[C@H](Cc1ccccc1)NC(=O)[C@@H](N)CO)C(=O)N[C@@H](CCCNC(=N)N)C(=O)N[C@@H](CC(N)=O)C(=O)N1CCC[C@H]1C(=O)O [P7, S42 FLLRNP48] (H-SFLLRNP-OH)
- Relative potency (REC) GLM [1, 4]: 0.4
- Relative potency (REC) RA [2, 5]: 1.1

- Relative potency (REC) RLM [3]: 0.1
Structure (SMILES): CC(C)C[C@H](NC(=O)[C@H](CC(C)C)NC(=O)[C@H](Cc1ccccc1)NC(=O)[C@@H](N)CO)C(=O)N[C@@H](CCCN=C(N)N)C(=O)N[C@@H](CC(N)=O)C(=O)N1CCC[C@H]1C(N)=O [P7-NH2, S42 FLLRNP48 -amide] (H-SFLLRNP-NH2)

Structure (SMILES): CC(C)C[C@H](NC(=O)[C@H](CC(C)C)NC(=O)[C@H](Cc1ccccc1)NC(=O)[C@@H](N)CO)C(=O)N[C@@H](CCCNC(=N)N)C(=O)N[C@@H](CC(N)=O)C(=O)N1CCC[C@H]1C(N)=O [P7-NH2, S42 FLLRNP48 -amide] (H-SFLLRNP-NH2)
- Relative potency (REC) GLM [1, 4]: 0.04
- Agonist (relaxation) activity ([2]; RA): active
- Relative potency (REC) RA [2, 5]: 0.08

- Relative potency (REC) GLM [1]: 4.5
Structure (SMILES): CC(C)C[C@H](NC(=O)[C@H](CC(C)C)NC(=O)[C@H](Cc1ccccc1)NC(=O)[C@@H](N)CO)C(=O)N[C@@H](CCCCN)C(=O)O [PK5, S42 FLLK46] (H-SFLLK-OH)
- Relative potency (REC) RA [2]: 1.3

- Relative potency (REC) GLM [1]: 1
Structure (SMILES): CCC(=O)N[C@@H](Cc1ccccc1)C(=O)N[C@@H](CC(C)C)C(=O)N[C@@H](CC(C)C)C(=O)N[C@@H](CCCNC(=N)N)C(=O)O [Pr-P4, N-propionyl-F43 LLR46] (Propionyl-FLLR-OH)
- Relative potency (REC) RA [2]: 0.1

Structure (SMILES): CCC(=O)N[C@@H](Cc1ccccc1)C(=O)N[C@@H](CC(C)C)C(=O)N[C@@H](CC(C)C)C(=O)N[C@@H](CCCNC(=N)N)C(N)=O [Pr-P4-NH2, N-propionyl-F43 -LLR46 -amide] (Propionyl-FLLR-NH2)
- Relative potency (REC) RA [2, 5]: A.

Structure (SMILES): CC(C)C[C@H](NC(=O)[C@H](Cc1ccccc1)NC(=O)[C@H](Cc1ccccc1)NC(=O)[C@@H](N)CO)C(=O)N[C@@H](CCCNC(=N)N)C(=O)O [Ra-P5, SFFLR] (H-SFFLR-OH)
- Relative potency (REC) RLM [3]: 1.0
- Relative potency (REC) RA [2, 5]: 4.4

Structure (SMILES): CC(C)C[C@H](NC(=O)[C@H](Cc1ccccc1)NC(=O)[C@H](Cc1ccccc1)NC(=O)[C@@H](N)CO)C(=O)N[C@@H](CCCNC(=N)N)C(N)=O [Ra-P5-NH2, SFFLR-amide] (H-SFFLR-NH2)
- Relative potency (REC) RLM [3]: 0.07
- Agonist (contractile) activity ([3]; RLM): most potent of all of the peptides we examined
- Agonist (relaxation) activity ([2]; RA): considerably less potent than the comparable human receptor sequences
- Relative potency (REC) RA [2, 5]: 0.2

Structure (SMILES): CC(C)C[C@H](NC(=O)[C@H](Cc1ccccc1)NC(=O)[C@H](Cc1ccccc1)NC(=O)[C@@H](N)CO)C(=O)N[C@@H](CCCNC(=N)N)C(=O)N[C@@H](CC(N)=O)C(=O)N1CCC[C@H]1C(=O)O [Ra-P7, SFFLRNP] (H-SFFLRNP-OH)
- Relative potency (REC) RLM [3]: 0.3
- Relative potency (REC) RA [2, 5]: 0.6

- Effect of inhibitor on contractile actions of P5--NH2 and Pr-P4 [1]: similarly effective
- Effect of inhibitor on contractile action of carbachol ([3]; RLM): unaffected
- Inhibition of the RLM response to P5-NH2 ([3]; mean ±S.E.M. for n=6): 77±3 % inhibition
Structure (SMILES): O=c1c(-c2ccc(O)cc2)coc2cc(O)cc(O)c12 [genistein, reference compound]

Structure (SMILES): COc1ccc2c(c1)c(CC(=O)O)c(C)n2C(=O)c1ccc(Cl)cc1 [indomethacin, reference compound]
- Effect of inhibitor on contractile actions of P5--NH2 and Pr-P4 [1]: blocked
- Inhibition of the RLM response to P5-NH2 [3]: 40±6 % inhibition
- Effect of inhibitor on contractile action of carbachol ([3]; RLM): unaffected
- Effect of inhibitor on RA relaxation responses to TRPs ([2]; RA, P5-NH2 and Pr-P4): not inhibited

- Effect of inhibitor on contractile actions of P5--NH2 and Pr-P4 [1]: blocked
- Sensitivity of the RLM response to P5-NH2 to the inhibitor [3]: quite sensitive
Structure (SMILES): COc1cc2ncnc(Nc3cccc(Cl)c3)c2cc1OC [tyrphostin, Tyrphostin, reference compound]
